Experimental findings from US20030134859A1 (SANKYO COMPANY, LIMITED, priority 2000, published 2003) are described below.

The structures appear in SMILES notation.

The first assay deals with Mouse preadipocyte strain 3T3-L1. As to the kind of experiment: Inhibition of differentiation as an indication of acetic acid uptake. It is filed as cell-based. Particulars: 0.1 μM test substance, control (0.01% dimethylsulfoxide) = 100%. The method in brief: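 Differentiation is indexed by 1 hr [2-14C]acetic acid incorporation, measured by scintillation counting and given as uptake relative to 0.01% DMSO control (100%). Mouse 3T3-L1 preadipocytes, pre-grown 10 days, received 0.1 μM test substance throughout a 4-day insulin/IBMX/dexamethasone induction, followed by 2 days' maintenance culture.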
For `O=C(Nc1ccc(-c2ccccn2)cc1)c1cc([N+](=O)[O-])ccc1Cl` [Example 8, N-[4-(2-Pyridyl)phenyl]-(2-chloro-5-nitrophenyl)carboxamide], the “Rate of Uptake (%) of [2-14C] acetic acid” value was 47.2%.

Still in this assay, the particulars now being: Mus musculus, 3T3-L1, 0.1 μM test substance, control (0.01% dimethylsulfoxide) = 100%, read-out: Rate of Uptake (%) of [2-14C] acetic acid.
For `Cc1ccc(NC(=O)c2cc([N+](=O)[O-])ccc2Cl)cc1` [Example 1, N-(4-Methylphenyl)-(2-chloro-5-nitrophenyl)carboxamide], the activity at 0.1 µM turned out to be 64%. For the compound `O=C(Nc1ccc(-c2ccccc2)cc1)c1cc([N+](=O)[O-])ccc1Cl` [Example 2, N-(4-Phenylphenyl)-(2-chloro-5-nitrophenyl)carboxamide], the activity at 0.1 µM was determined as 42.7%. With `Cc1cnc(NC(=O)c2cc([N+](=O)[O-])ccc2Cl)s1` [Example 4, N-(5-Methylthiazol-2-yl)-(2-chloro-5-nitrophenyl)carboxamide], the activity at 0.1 µM came out at 92.5%.

For `O=C(Nc1cccc(-c2ccccc2)c1)c1cc([N+](=O)[O-])ccc1Cl` [Example 5, N-(3-Phenylphenyl)-(2-chloro-5-nitrophenyl)carboxamide], the activity at 0.1 µM was determined as 43.4%.

Take `COc1ccc(NC(=O)c2cc([N+](=O)[O-])ccc2Cl)cc1-c1ccccc1` [Example 6, N-(4-Methoxy-3-phenyl)phenyl-(2-chloro-5-nitrophenyl)carboxamide]: the activity at 0.1 µM was 55.8%. `O=C(Nc1ccccc1-c1ccccc1)c1cc([N+](=O)[O-])ccc1Cl` [Example 7, N-(2-Phenylphenyl)-(2-chloro-5-nitrophenyl)carboxamide]: the activity at 0.1 µM is 65%.

As to `Cc1ccc2nc(-c3ccc(NC(=O)c4cc([N+](=O)[O-])ccc4Cl)cc3)sc2c1` [Example 10, N-[4-(6-Methylbenzothiazol-2-yl)phenyl]-(2-chloro-5-nitrophenyl)carboxamide], the activity at 0.1 µM stood at 85.3%. On to `CCCCCc1ccc(NC(=O)c2cc([N+](=O)[O-])ccc2Cl)cc1` [Example 16, N-(4-Pentylphenyl)-(2-chloro-5-nitrophenyl)carboxamide], for which the activity at 0.1 µM stood at 83.7%.

As to `N#Cc1ccc(NC(=O)c2cc([N+](=O)[O-])ccc2Cl)cc1` [Example 20, N-(4-Cyanophenyl)-(2-chloro-5-nitrophenyl)carboxamide], the activity at 0.1 µM amounted to 65.9%. On the same count and under the same terms, the result for `CCOC(=O)c1ccc(NC(=O)c2cc([N+](=O)[O-])ccc2Cl)cc1` [Example 26, N-(4-Ethoxycarbonylphenyl)-(2-chloro-5-nitrophenyl)carboxamide] reads 87.5%; that for `CC(C)(C)c1cc(NC(=O)c2cc([N+](=O)[O-])ccc2Cl)cc(C(C)(C)C)c1O` [Example 29, N-(3,5-Di-t-butyl-4-hydroxyphenyl)-(2-chloro-5-nitrophenyl)carboxamide], 68.6%.

For `O=C(Nc1cccc(NS(=O)(=O)c2ccccc2)c1)c1cc([N+](=O)[O-])ccc1Cl` [Example 30, N-(3-Benzensulfonylaminophenyl)-(2-chloro-5-nitrophenyl)carboxamide], the activity at 0.1 µM is 60.1%. The same measure, in the same setting: the result for `O=C(Nc1nc(-c2ccccc2)cs1)c1cc([N+](=O)[O-])ccc1Cl` [Example 35, N-(4-Phenylthiazol-2-yl)-(2-chloro-5-nitrophenyl)carboxamide] reads 71.5%. Still for that read-out and setting: to `O=C(Nc1nc(-c2cccnc2)cs1)c1cc([N+](=O)[O-])ccc1Cl` [Example 37, N-[4-(3-Pyridyl)thiazol-2-yl)-(2-chloro-5-nitrophenyl)carboxamide] belongs 38.6%; to `O=C(Nc1nc(-c2ccccn2)cs1)c1cc([N+](=O)[O-])ccc1Cl` [Example 38, N-[4-(2-Pyridyl)thiazol-2-yl)-(2-chloro-5-nitrophenyl)carboxamide], 82%; to `Cc1ccccc1-c1csc(NC(=O)c2cc([N+](=O)[O-])ccc2Cl)n1` [Example 39, N-[4-(2-Methylphenyl)thiazol-2-yl]-(2-chloro-5-nitrophenyl)carboxamide], 62.5%. Same read-out and setting: the result for `Cc1cccc(-c2csc(NC(=O)c3cc([N+](=O)[O-])ccc3Cl)n2)c1` [Example 40, N-[4-(3-Methylphenyl)thiazol-2-yl)-(2-chloro-5-nitrophenyl)carboxamide] reads 45.3%; that for `O=C(Nc1nc(-c2cccc3ccccc23)cs1)c1cc([N+](=O)[O-])ccc1Cl` [Example 41, N-[4-(1-Naphthyl)thiazol-2-yl]-(2-chloro-5-nitrophenyl)carboxamide], 53.8%; that for `CCc1ccc(-c2csc(NC(=O)c3cc([N+](=O)[O-])ccc3Cl)n2)cc1` [Example 44, N-[4-(4-Ethylphenyl)thiazol-2-yl]-(2-chloro-5-nitrophenyl)carboxamide], 67.6%. As to `Cc1ccc(-c2nc(NC(=O)c3cc([N+](=O)[O-])ccc3Cl)sc2C)cc1Cl` [Example 46, N-[4-(3-Chloro-4-methylphenyl)-5-methylthiazol-2-yl]-(2-chloro-5-nitrophenyl)carboxamide], the activity at 0.1 µM is 67%. In the case of `Cc1nc(NC(=O)c2cc([N+](=O)[O-])ccc2Cl)sc1C` [Example 47], the activity at 0.1 µM came to 63.1%. Take `O=C(Nc1cccnc1)c1cc([N+](=O)[O-])ccc1Cl` [Example 50, N-(3-Pyridyl)-(2-chloro-5-nitrophenyl)carboxamide]: the activity at 0.1 µM was 61.4%. Regarding `Cc1cccc(NC(=O)c2cc([N+](=O)[O-])ccc2Cl)n1` [Example 51, N-(6-Methylpyridin-2-yl)-(2-chloro-5-nitrophenyl)carboxamide], the activity at 0.1 µM turned out to be 57.5%. On the same count and under the same terms, to `Cc1ccc(NC(=O)c2cc([N+](=O)[O-])ccc2Cl)nc1` [Example 52, N-(5-Methylpyridin-2-yl)-(2-chloro-5-nitrophenyl)carboxamide] belongs 52.3%; to `O=C(Nc1ccc2c3c(cccc13)CC2)c1cc([N+](=O)[O-])ccc1Cl` [Example 54, N-(Acenaphthen-5-yl)-(2-chloro-5-nitrophenyl)carboxamide], 51.3%; to `O=C(Nc1cccc2cccnc12)c1cc([N+](=O)[O-])ccc1Cl` [Example 57, N-(8-Quinolinyl)-(2-chloro-5-nitrophenyl)carboxamide], 58.4%. Still for that read-out and setting: to `Cc1ccnc(NC(=O)c2cc([N+](=O)[O-])ccc2Cl)n1` [Example 65, N-(4-Methylpyrimidin-2-yl)-(2-chloro-5-nitrophenyl)carboxamide] belongs 63.4%; to `COC(=O)c1sccc1NC(=O)c1cc([N+](=O)[O-])ccc1Cl` [Example 66, N-(2-Methoxycarbonylthiophen-3-yl)-(2-chloro-5-nitrophenyl)carboxamide], 70.7%. As for `Cc1cc(Cl)nc(NC(=O)c2cc([N+](=O)[O-])ccc2Cl)n1` [Example 78, N-(4-Chloro-6-methylpyrimidin-2-yl)-(2-chloro-5-nitrophenyl)carboxamide], the activity at 0.1 µM amounted to 68.2%. `Cn1c(NC(=O)c2cc([N+](=O)[O-])ccc2Cl)nc2ccccc21` [Example 82, N-(1-Methylbenzimidazol-2-yl)-(2-chloro-5-nitrophenyl)carboxamide]: the activity at 0.1 µM stood at 83%. Still for that read-out and setting: the result for `O=C(Nc1nncs1)c1cc([N+](=O)[O-])ccc1Cl` [Example 85, N-(1,3,4-Thiadiazol-2-yl)-(2-chloro-5-nitrophenyl)carboxamide] reads 67.1%; that for `O=C(Nc1cccc2nsnc12)c1cc([N+](=O)[O-])ccc1Cl` [Example 86, N-(2,1,3-Benzothiazol-4-yl)-(2-chloro-5-nitrophenyl)carboxamide], 51.7%; that for `CC(C)(C)OC(=O)Nc1ccc(-c2ccc(NC(=O)c3cc([N+](=O)[O-])ccc3Cl)cc2)cc1` [Example 87, N-[4-[4-(tert-Butoxycarbonylamino)phenyl]phenyl]-(2-chloro-5-nitrophenyl)carboxamide], 57.1%. Still for that read-out and setting: the result for `O=C(Nc1ccc(S(=O)(=O)Nc2nccs2)cc1)c1cc([N+](=O)[O-])ccc1Cl` [Example 96, N-[4-(Thiazol-2-yl)aminosulfonyl]phenyl-(2-chloro-5-nitrophenyl)carboxamide] reads 98.7%; that for `O=C(Nc1ccc(S(=O)(=O)Nc2ccc(Cl)nn2)cc1)c1cc([N+](=O)[O-])ccc1Cl` [Example 102, N-[4-[(6-Chloropyridazin-3-yl)aminosulfonyl]phenyl]-(2-chloro-5-nitrophenyl)carboxamide], 76.8%; that for `COc1cnc(NS(=O)(=O)c2ccc(NC(=O)c3cc([N+](=O)[O-])ccc3Cl)cc2)nc1` [Example 105, N-[4-[(5-Methoxypyrimidin-2-yl)aminosulfonyl]phenyl]-(2-chloro-5-nitrophenyl)carboxamide], 89.4%. `N=C(N)NS(=O)(=O)c1ccc(NC(=O)c2cc([N+](=O)[O-])ccc2Cl)cc1` [Example 106, N-[4-(Amidinoaminosulfonyl)phenyl]-(2-chloro-5-nitrophenyl)carboxamide]: the activity at 0.1 µM was 82%. On the same count and under the same terms, the result for `O=C(Nc1ccc(S(=O)(=O)Nc2ccnn2-c2ccccc2)cc1)c1cc([N+](=O)[O-])ccc1Cl` [Example 108, N-[4-[(2-Phenyl-(2H)-pyrazol-3-yl)aminosulfonyl]phenyl]-(2-chloro-5-nitrophenyl)carboxamide] reads 87.7%. The same measure, in the same setting: to `O=C(Nc1nnc(-c2ccccc2)s1)c1cc([N+](=O)[O-])ccc1Cl` [Example 110, N-(5-Phenyl-[1,3,4]thiadiazol-2-yl)-(2-chloro-5—nitrophenyl)carboxamide] belongs 84.6%; to `O=C(Nc1nc(-c2ccc(F)c(F)c2)cs1)c1cc([N+](=O)[O-])ccc1Cl` [Example 111, N-[4-(3,4-Difluorophenyl)thiazol-2-yl]-(2-chloro-5-nitrophenyl)carboxamide], 61.2%.
